# Patent publication US20140199420A1, “USES OF TOONA SINENSIS EXTRACT” (National Chung Hsing University, priority 2013, published 2014)
# Test system: lactic acid bacteria
# Assay: Lactic acid bacteria count of Taiwanese style sausage during storage
# Conditions: second group, 25% sodium lactate; at 4 and 8 weeks storage at 15° C.
# Experimental: The each group of sausages prepared from example 4 was packed in equal with vacuum package and stored at 15° C. for 8 weeks. Taking the amounts of sausages from the each group in 0, 1, 2, 3, 4 and 8 weeks were separately packed into sterile bags with sterile water and homogenized with a stomacher (Lab-Blender 400, England) for 30 second to have dilutions of the each group's sausages at different storage times for further microbiological analyzing.
# The dilutions of the each group's sausage at different storage times were separately poured into a petri dish, added first layer of MRS agar into the each petri dish and then mixed completely. The second layer of MRS agar was poured on the first layer of MRS agar to produce an anaerobic condition then mixed and incubated at 37° C. for 48 hours in an anaerobic jar.
smiles,measurement,value
CC(O)C(=O)[O-].[Na+] (stereo not shown) [sodium lactate],lactic acid bacteria count,7.52 log CFU/g
